Results: ChEMBL document CHEMBL1129813, “Synthesis and cell growth inhibitory properties of substituted (E)-1-phenylbut-1-en-3-ones” (Bioorg Med Chem Lett, 1997)

Test system: K562
Experiment: In vitro cell growth inhibitory activity against K562 human chronic myelogenous leukemia cell line
Type: functional, cell-based

| SMILES | IC50 |
| --- | --- |
| CC(=O)/C=C/c1ccc2c(c1)OCO2 | 12 µM |
| COc1cc(N(C)C)ccc1/C=C/C(C)=O | 68 µM |
| CC(=O)/C=C/c1ccc2ccccc2c1 | 7.6 µM |
| CC(=O)/C=C/c1c(F)c(F)c(F)c(F)c1F | 1.9 µM |
| CC(=O)/C=C/c1ccc(N(C)C)cc1 | 90 µM |
| CC(=O)/C=C/c1ccc(Cl)cc1Cl | 7.9 µM |
| COc1cc(/C=C/C(C)=O)cc(OC)c1 | 5.8 µM |
| CC(=O)/C=C/C=C/c1ccccc1 | 20 µM |
| COc1ccc(/C=C/C(C)=O)c(OC)c1 | 30 µM |
| CC(=O)/C=C/c1ccco1 | > 100 µM |
| COc1ccc(/C=C/C(C)=O)cc1OC | 34 µM |
| CC(=O)/C=C/c1ccc(OCc2ccccc2)cc1 | 10.3 µM |
| CC(=O)/C=C/c1cc(Br)ccc1F | 5.3 µM |
| CC(=O)/C=C/c1ccc(C(C)C)cc1 | 21 µM |
| COc1cc(/C=C/C(C)=O)cc(OC)c1OC | 17 µM |
| CC(=O)/C=C/c1ccc(Br)cc1F | 7.4 µM |
| COc1ccc(/C=C/C(C)=O)cc1O | 42 µM |
| CC(O)CCc1ccc(O)cc1 (configuration not stated) | > 100 µM |
| CC(=O)/C=C/c1ccc(OCc2ccccc2)c(OCc2ccccc2)c1 | 8.4 µM |

| SMILES | IC50 |
| --- | --- |
| CC(=O)/C=C/c1cccc([N+](=O)[O-])c1 | 2.6 µM |
| CC(=O)/C=C/c1ccc(F)c(Br)c1 | 2.9 µM |
| COc1cc(/C=C/C(C)=O)cc(OC)c1O | 56 µM |
| CSc1ccc(/C=C/C(C)=O)cc1 | 15 µM |
| COc1cc(OC)c(/C=C/C(C)=O)c(OC)c1 | 9.3 µM |
| CC(=O)/C=C/c1cccs1 | 20 µM |
| CC(=O)/C=C/c1ccc(C)cc1 | 7.5 µM |
| COc1ccc(/C=C/C(C)=O)cc1 | 79 µM |
| CC(=O)/C=C/c1ccc(F)cc1 | 6.1 µM |
| CC(=O)/C=C/c1ccc([N+](=O)[O-])cc1 | 2.6 µM |
| CC(=O)/C=C/c1cccc(C(F)(F)F)c1 | 3.5 µM |
| COc1cccc(/C=C/C(C)=O)c1O | 9.9 µM |
| CC(=O)/C=C/c1ccc(Br)cc1 | 5.6 µM |
| CC(=O)/C=C/c1ccc(C(F)(F)F)cc1 | 3.3 µM |
| CC(=O)/C=C/c1ccc(Cl)cc1 | 8.3 µM |
| CC(=O)/C=C/c1ccc(O)cc1 | 60 µM |
| COc1cc(/C=C/C(C)=O)ccc1O [DEHYDROZINGERONE] | 68 µM |
| CC(=O)CCc1ccc(O)cc1 [RASPBERRYKETONE] | > 100 µM |
